Experimental data published in patent US7183267B2, “β-lactamase inhibitors and methods of use thereof” (priority 2003, dated 2007).
In brackets after ≈: the same amount, converted by molar mass. Read-outs that look alike come from different tables or passages of the source.

How the values were obtained:
[1] = tested on: methicillin resistant S. aureus ATCC 33591 (MRSA-ATCC); assay: MIC assay, broth microdilution, MRSA-ATCC; format: cell-based; details: Staphylococcus aureus
Experimental: (1) methicillin resistant S. aureus ATCC 33591 (MRSA-ATCC). This strain was obtained from American Type Culture Collection (ATCC), Manassas, Md.;
(§1) The strains were processed according to procedures recommended by ATCC, or procedures that are routinely used. Single colonies of each organism were picked for purification to generate pure working cultures. Prior to each experiment each strain was subcultured on a fresh Mueller-Hinton agar plate (MHA).
(§2) Inocula for the MIC assays were prepared by transferring a tiny portion of one colony from a MHA plate to 2 ml of Mueller-Hinton broth (MHB) such that the estimated cell density was about 10^7 colony forming unit (CFU)/ml. This cell suspension was then further diluted 10-fold (to 10^6 CFU/ml) by transferring the 2 ml cell suspension to 18 ml of MHB. Addition of 50 μl of this dilute cell suspension to 50 μl of growth medium yielded the desired cell density, namely about 5×10^4 CFU/well, or 5×10^5 CFU/ml.
(§3) The MIC value of oxacillin was determined using the broth microdilution procedure recommended by the National Committee of Clinical Laboratory Standards (NCCLS, 2000).
(§4) The MIC experiments were performed in duplicate in 96-well microtiter plates using MHB. A stock solution of 2.6 mg/0.5 ml was prepared in dimethylsulfoxide (DMSO). A total of 8 two-fold serial dilutions were made with DMSO. Initial oxacillin doses used were (μg/ml): 64, 32, 16, 8, 4, 2, 1, and 0.5. Doses were adjusted in the confirmatory experiment, if needed, in order to establish an actual MIC value.
(§5) To each well of a 96 well microtiter plate was added 47.5 μl of MHB. A volume of 2.5 μl of each dilution of oxacillin was then transferred to appropriate wells containing the medium. All wells, except the sterility control wells, were then inoculated with 50 μl of a diluted cell suspension to give a final volume of 100 μl and a final cell density of 5×10^4 CFU/well. The volume in the sterility control wells was adjusted to 100 μl with MHB. A sterile pipette tip was used to mix the contents of each well (one tip was used going from the low to the high concentration in the same column). The microtiter plates were covered with the lids and were placed in large Stratagene Big Blue plates (Cat. # 400041). Four large kimwipes moistened with tap water were placed near the edges of the Stratagene plates to prevent evaporation of the medium. The microtiter plates were incubated for at least 24 hours at 35° C. The plates were then evaluated for growth in each well. Controls included: medium sterility and negative control (medium and bacteria only).
(§6) The procedure used to determine the antimicrobial activity of the compounds of the present invention was identical to the broth microdilution procedure described above with the exception of the preparation of the stock solutions. Stock solution at concentration of 40.96 mg/0.5 ml was prepared in DMSO for each of the compounds. A total of 8 two-fold dilutions were then made in DMSO. A volume of 2.5 μl of each dilution was delivered to appropriate wells. The initial doses used were (μg/ml): 512, 256, 128, 64, 32, 16, 8, and 4.
(§7) A numerical code was used to evaluate the extent of growth as indicated below. • 0: absence of growth • 1: barely visible (faint) growth • 2: fair growth but less than the negative solvent control • 3: growth is equivalent to the negative solvent control.
(§8) The lowest dose at which no visible growth is observed was determined to be the MIC value.
(§9) MIC assays were performed with oxacillin and the four compounds. Each of the compounds was tested at the following 8 doses (μg/ml): 512, 256, 128, 64, 32, 16, 8, and 4. Oxacillin was tested at the following 8 doses (μg/ml): 64, 32, 16, 8, 4, 2, 1, and 0.5.

[2] = tested on: methicillin sensitive S. aureus ATCC 25923 (MSSA); assay: MIC assay, broth microdilution, MSSA; format: cell-based; details: Staphylococcus aureus
Experimental: (3) methicillin sensitive S. aureus ATCC 25923 (MSSA). This strain was obtained from ATCC and was used as a control.
as §1, §2, §3, §4, §5, §6, §7, §8, §9

[3] = target: TEM-1 β-lactamase (Escherichia coli, UniProt P62593); assay: TEM-1 β-lactamase inhibition assay (nitrocefin hydrolysis, 486 nm); format: biochemical; details: Ki, 25° C., 50 mM sodium phosphate, 5% DMSO, pH 7.0; enzyme 5 nM, nitrocefin 167 μM
TEM-1 β-lactamase, sequence (P62593 24-286 limits assumed): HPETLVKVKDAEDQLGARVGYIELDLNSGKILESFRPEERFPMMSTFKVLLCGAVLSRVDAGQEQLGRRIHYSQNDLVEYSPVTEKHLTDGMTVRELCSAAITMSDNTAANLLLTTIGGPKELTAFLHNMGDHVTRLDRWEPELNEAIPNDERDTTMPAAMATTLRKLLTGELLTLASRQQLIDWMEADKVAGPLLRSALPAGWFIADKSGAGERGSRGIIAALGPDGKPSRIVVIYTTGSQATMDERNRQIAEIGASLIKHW
Outline: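 TEM-1 activity followed by nitrocefin hydrolysis at 486 nm, 25 °C, 50 mM sodium phosphate pH 7.0, 5% DMSO; inhibitor preincubated with enzyme 10 min before substrate. Ki obtained from rates at increasing inhibitor concentrations fitted to competitive-inhibition equations; penicillin G also used as substrate for KM and kcat.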

[4] = tested on: methicillin resistant S. aureus from Stanford University Hospital (MRSA-SU); assay: MIC assay, broth microdilution, MRSA-SU; format: cell-based; details: Staphylococcus aureus
From the text: (2) methicillin resistant S. aureus from Stanford University Hospital Clinical Microbiology/Virology Laboratory (MRSA-SU). […] Such Staphylococci are also resistant to all penicillins, and all cephalosporins, in addition to all β-lactamase inhibitor combinations (including ampicillin/sulbactarn, amoxicillin/clavulanic acid, piperacillin/tazobactam), imipenem, and meropenem; and
as §1, §2, §3, §4, §5, §6, §7, §8, §9

SMILES	MIC ([1]; 24 h)	MIC ([2]; 24 h)	Ki [3]	MIC ([4]; MRSA, 24 h)	MIC ([1]; MRSA-ATCC, substance alone, at least 24 hours at 35° C., read-out: MIC)	MIC ([2]; MSSA, substance alone, at least 24 hours at 35° C., read-out: MIC)	MIC ([4]; MRSA-SU, substance alone, at least 24 hours at 35° C., read-out: MIC)
O=C(OCc1ccccc1)c1cc(B(O)O)cc([N+](=O)[O-])c1 [Compound F1201]	32 µg/mL (≈ 106 µM)	32 µg/mL (≈ 106 µM)	27 µM	32 µg/mL	–	–	–
COC(=O)c1cc(B(O)O)cc([N+](=O)[O-])c1 [Compound F1202]	16 µg/mL (≈ 71.1 µM)	128 µg/mL (≈ 569 µM)	–	256 µg/mL	–	–	–
Cc1onc(-c2ccccc2)c1C(=O)N[C@@H]1C(=O)N2[C@@H]1SC(C)(C)[C@@H]2C(=O)O [Oxacillin, reference compound]	–	–	–	–	32 µg/mL (≈ 79.7 µM)	0.25 µg/mL (≈ 0.623 µM)	> 64 µg/mL
